Source: article PMC10652874, “Investigation into the mechanism of action of the antimicrobial peptide epilancin 15X” (Frontiers in Microbiology, 2023)

Tested on: S. carnosus TM300
Assay: RNAseq differential gene expression
Type: cell-based, Staphylococcus carnosus
Description: For the RNAseq experiments, epilancin was added at sub-lethal concentration (0.5x MIC) to S. carnosus TM300 once the cultures reached an OD600 of 0.6. RNA was extracted 40 min after the treatment, using a FastRNA Pro Blue kit (MP Biomedicals). Both treated and parallel untreated samples were collected at the same time. Sequencing was performed at the Carver Biotechnology Center (UIUC). For RNAseq analysis, gene counts were read in to R (v3.1.1; [Team, 2014]), and 14/2441 genes were removed because they had fewer than 32 total counts across the six samples. edgeR’s (v3.6.7) TMM normalization ([Robinson and Oshlack, 2010]) plus negative binomial generalized log-linear model ([McCarthy et al., 2012]) was used to test for differential expression between treated and untreated groups, while accounting for pairing of U and T replicates from three different cultures. p-values were adjusted using the false discovery rate method ([Benjamini and Hochberg, 1995]).

[1] = putative ABC transporter ATP-binding protein
[2] = putative short chain dehydrogenase
[3] = putative transcriptional regulator

## Epilancin 15X
molybdopterin-guanine dinucleotide biosynthesis protein MobA
  fold_change mobA: 2.6
mutT/nudix family protein
  fold_change mutT: 5.15
Phage integrase
  fold_change int: 3.38
Phosphate transporter ATP-binding protein
  fold_change pstB: 3.4
phosphopentomutase, gene drm
  fold_change deoB: 2.75
Poly D-alanine transfer protein
  fold_change dltD: 2.08
proline/betaine transporter
  fold_change proP: 2.73
Putative 2-keto-4-pentenoate hydratase
  fold_change Sca_0040: 2.87
Putative 3-methyladenine DNA glycosylase
  fold_change Sca_1843: 2.27
[1]
  fold_change Sca_0458: 3.16
  fold_change Sca_2242: 2.55
Putative ABC transporter permease
  fold_change Sca_1033: 3.26
Putative ABC-type cobalt transport system ATPase
  fold_change Sca_0699: 2.62
Putative ATP-dependent Clp proteinase chain clpL
  fold_change clpL: 7.83
Putative ATP-dependent helicase
  fold_change Sca_0398: 3.32
Putative ComK family protein
  fold_change Sca_0642: 2.73
Putative CorA-like Mg2+ transporter protein
  fold_change Sca_2395: 2.01
Putative DNA repair protein RadC, gene radC
  fold_change Sca_1264: 12.09
Putative FeS assembly protein SufB
  fold_change sufB: 3.43
Putative HNH family endonuclease, phage associated
  fold_change Sca_0476: 4.35
Putative IstB-like ATP-binding protein, phage associated
  fold_change Sca_0479: 3.51
Putative L-serine dehydratase subunit beta
  fold_change sdaB: 3.71
Putative L-serine dehydratase, iron-sulfur-dependent subunit alpha
  fold_change sdaA: 2.95
Putative MerR family transcriptional regulator
  fold_change Sca_0539: 2.12
Putative N-acetyltransferase
  fold_change Sca_0093: 2.6
Putative NAD(P)H-flavin oxidoreductase
  fold_change Sca_1976: 5.31
Putative NADH-flavin reductase
  fold_change Sca_0831: 4.42
Putative NADP-dependent oxidoreductase
  fold_change Sca_1692: 5.86
Putative NADPH oxidoreductase
  fold_change Sca_1977: 5.07
Putative Na(+)/H(+) antiporter subunit G
  fold_change Sca_2123: 2.16
Putative PTS system, IIBC components
  fold_change Sca_2138: 2.3
Putative RpiR family transcriptional regulator
  fold_change Sca_2137: 2.96
Putative Tat-translocated protein
  fold_change Sca_2214: 3.14
Putative acetoacetate decarboxylase
  fold_change adc: 2.51
Putative acid-CoA ligase
  fold_change fadE: 2.21
Putative alcohol dehydrogenase
  fold_change adhC: 2.53
Putative alcohol dehydrogenase, zinc-containing
  fold_change Sca_2013: 3.05
Putative aldehyde dehydrogenase
  fold_change aldH: 0.49
Putative aldehyde dehydrogenase family protein
  fold_change Sca_1625: 2.65
Putative alkaline shock protein
  fold_change Sca_1685: 4.53
Putative alpha-acetolactate decarboxylase
  fold_change Sca_1958: 4.48
Putative alpha/beta fold family hydrolase
  fold_change Sca_0638: 2.8
Putative alpha/beta hydrolase superfamily protein
  fold_change Sca_0872: 3.04
Putative amidohydrolase
  fold_change Sca_0567: 2.54
Putative amidophosphoribosyltransferase
  fold_change Sca_0399: 3.6
Putative amino acid transporter
  fold_change Sca_2120: 0.49
Putative antibiotic transport-associated protein
  fold_change Sca_2151: 2.04
Putative antirepressor, phage associated
  fold_change Sca_0467: 4.9
Putative branched-chain amino acid carrier
  fold_change brnQ: 0.5
Putative catalase
  fold_change katE/B: 5.7
Putative cation exporting ATPase
  fold_change Sca_0538: 5
Putative cation-efflux system membrane protein
  fold_change czrB: 9.3
Putative cell wall-anchored protein
  fold_change Sca_0867: 2.34
Putative cobalt transport system permease
  fold_change Sca_0698: 2.09
Putative copper-transporting P-type ATPase
  fold_change copA: 2.32
Putative cytochrome D ubiquinol oxidase subunit I
  fold_change Sca_0707: 2.66
Putative cytochrome D ubiquinol oxidase subunit II
  fold_change Sca_0708: 3.72
Putative dUTP pyrophosphatase, phage associated
  fold_change dut: 3.34
Putative dioxygenase
  fold_change Sca_2298: 4.81
Putative effector domain of transcriptional regulator
  fold_change Sca_0871: 3.63
Putative esterase of the alpha-beta hydrolase superfamily
  fold_change Sca_0099: 2.92
Putative formamidase
  fold_change fmdA: 5.66
Putative general stress protein
  fold_change Sca_1468: 2.39
Putative glycerate kinase
  fold_change Sca_0390: 2.11
Putative glycerophosphoryl diester phosphodiesterase
  fold_change Sca_1327: 2.21
Putative glycine betaine/carnitine/choline transport system permease
  fold_change opuCB: 2.02
Putative glycosyl transferase
  fold_change Sca_0056: 2.07
Putative glyoxylase family protein
  fold_change Sca_1969: 4.21
Putative heat-inducible transcriptional repressor
  fold_change hrcA: 3.08
Putative holin-like protein LrgA
  fold_change lrgA: 3.61
Putative holliday junction resolvase, phage associated
  fold_change Sca_0480: 3.23
Putative indole-3-pyruvate decarboxylase
  fold_change Sca_2166: 2.06
Putative intracellular protease/amidase
  fold_change Sca_0081: 5.75
Putative mannose-6-phosphate isomerase
  fold_change Sca_1648: 0.5
Putative membrane-bound sulfatase
  fold_change Sca_0366: 2.62
Putative methylated DNA-protein cysteine methyltransferase
  fold_change adaB: 2.26
Putative monovalent cation/H+ antiporter subunit A
  fold_change Sca_2129: 3.98
Putative monovalent cation/H+ antiporter subunit B
  fold_change Sca_2128: 2.49
Putative monovalent cation/H+ antiporter subunit C
  fold_change Sca_2127: 2.24
Putative monovalent cation/H+ antiporter subunit D
  fold_change Sca_2126: 2.35
Putative monovalent cation/H+ antiporter subunit E
  fold_change Sca_2125: 2.21
Putative monovalent cation/H+ antiporter subunit F
  fold_change Sca_2124: 2.43
Putative nitroreductase
  fold_change Sca_0449: 2.26
Putative oxidoreductase protein
  fold_change mocA: 5.88
Putative peptidase
  fold_change Sca_0684: 2.13
Putative peptidase (peptidase family M20/M25/M40)
  fold_change Sca_1042: 0.49
Putative phage integrase family protein
  fold_change Sca_2130: 8.35
Putative phosphate ABC transporter permease
  fold_change pstA: 3.6
Putative phosphate transport system substrate-binding protein
  fold_change Sca_1034: 3.27
Putative phosphate uptake regulator protein
  fold_change Sca_1030: 3.27
Putative phospholipase/carboxylesterase
  fold_change Sca_0075: 3.41
Putative purine regulatory protein
  fold_change Sca_0147: 2.18
Putative pyrimidine nucleoside phosphorylase
  fold_change pdp: 2.55
Putative repressor protein
  fold_change czrA: 8.56
Putative response regulator
  fold_change vraR: 8.62
Putative ribosome-associated protein
  fold_change Sca_0400: 2.26
Putative selenocysteine lyase
  fold_change csdB: 3.29
[2]
  fold_change Sca_1824: 2.61
  fold_change Sca_2218: 3.36
  fold_change Sca_2233: 2.35
Putative site-specific recombinase XerD
  fold_change xerD: 2.53
Putative sugar phosphate isomerase
  fold_change Sca_0225: 3.01
Putative thioredoxine reductase
  fold_change trxB: 2.17
Putative transcription activator of glutamate synthase operon
  fold_change gltC: 2.32
Putative transcription regulator MarR family
  fold_change Sca_1970: 3.81
Putative transcriptional activator TenA
  fold_change Sca_2227: 2.88
[3]
  fold_change Sca_0070: 5.38
  fold_change Sca_2381: 3.42
Putative transmembrane protein
  fold_change Sca_1791: 8.45
Putative transport protein
  fold_change Sca_1822: 0.49
Putative two-component response regulator
  fold_change Sca_1423: 0.49
Quinolone resistance protein NorA
  fold_change norA: 2.56
Regulatory protein SpoVG
  fold_change spoVG: 2.18
Ribonuclease P
  fold_change rnpA: 2.02
Ribosomal protein L11 methyltransferase, gene SCA_1200
  fold_change prmA: 2.07
Secretory antigen SsaA
  fold_change Sca_0809: 2.03
sodium:alanine symporter family protein
  fold_change Sca_0615: 3.14
succinate-semialdehyde dehydrogenase (NADP+), gene gabD
  fold_change Sca_2363: 2.52
tRNA (uracil-5-)-methyltransferase Gid, gene gid
  fold_change trmFO: 2.02
Thymidine kinase
  fold_change tdk: 0.49
Transcription regulator Fur family
  fold_change perR: 2.27
Transcription repressor of class III stress genes
  fold_change ctsR: 5.22
Transport system binding protein
  fold_change Sca_0964: 3.98
type-1 signal peptidase 1B
  fold_change sipB: 2.45
type-I signal peptidase
  fold_change sipA: 2.68
